This is an account of results in patent US12570638B2, “Fused imidazole derivatives as AHR antagonists” (Sail Biomedicines, Inc., priority 2020, dated 2026).

Data set [1] in a line: Solubility Determination Assay (PBS, LC-MS/MS). It is filed as physicochemical. The following applies: aqueous buffer, kinetic from dmso stock. The procedure: The stock solutions of test compounds and control compound progesterone were prepared in DMSO at the concentrations of 10 mM. 15 μL of stock solution (10 mM) of each sample was placed in order into their proper 96-well rack. 485 μL of PBS pH 1.6 and pH 7.4 were added into each vial of the cap-less Solubility Sample plate. The assay was performed in singlet. One stir stick was added to each vial and then the vial was sealed using a molded PTFE/Silicone plug. […] After completion of the 2 hours, plugs were removed and the stir sticks were removed using a big magnet. The samples from the Solubility Sample plate were transferred into the filter plate. Using the Vacuum Manifold, all the samples were filtered. An aliquot of 5 μL was taken from the filtrate followed by addition of 495 μL of a mixture of H2O and acetonitrile containing internal standard (1:1). A certain proportion of ultrapure water was used to dilute the diluent according to the peak shape. The dilution factor was changed according to the solubility values and the LC-MS signal response.
From the 10 mM DMSO STD plate, 6 μL was transferred into the remaining empty plate, and then 194 μL of DMSO were added to that plate to have a STD concentration of 300 μM. From the 300 μM DMSO STD plate, 5 μL were transferred into the remaining empty plate, and then 495 μL of a mixture of H2O and acetonitrile containing internal standard (1:1) were added to that plate to have a final STD concentration of 3 μM. A certain proportion of ultrapure water was used to dilute the diluent according to the peak shape. The concentrations of the standard samples were changed according to the LC-MS signal response.
The plate was placed into the well plate autosampler. The samples were evaluated by LC-MS/MS analysis.
All calculations were carried out using Microsoft Excel.
The filtrate was analyzed and quantified against a standard of known concentration using LC coupled with mass spectral peak identification and quantitation. Solubility values of the test compound and control compound were calculated as follows: […]
Any value of the compounds that was not within the specified limits was rejected and the experiment was repeated.
“+++” indicates a solubility value equal to or greater than 10 μM, “++” indicates a solubility value between 1 and 10 μM, and “+” indicates a solubility value less than 1 μM.

Data set [2] can be described thus: Caco-2 Permeability Assay. It is filed as in vitro ADME. The following applies: human; for Papp A→B at 2 h, 1 μM: Caco-2, pH 7.4, apical to basolateral, read-out: Caco2 Papp (AB); for Papp B→A at 2 h, 1 μM: Caco-2, pH 7.4, basolateral to apical, read-out: Caco2 Papp (BA). The procedure: Preparation of Caco-2 Cells: 50 μL and 25 mL of cell culture medium were added to each well of the Transwell insert and reservoir, respectively. The HTS transwell plates were incubated at 37° C., 5% CO2 for 1 hour before cell seeding. Caco-2 cells were diluted to 6.86×10^5 cells/mL with culture medium and 50 μL of cell suspension were dispensed into the filter well of the 96-well HTS Transwell plate. Cells were cultivated for 14-18 days in a cell culture incubator at 37° C., 5% CO2, 95% relative humidity. Cell culture medium was replaced every other day, beginning no later than 24 hours after initial plating.
Assessment of Cell Monolayer Integrity: Medium was removed from the reservoir and each Transwell insert and replaced with prewarmed fresh culture medium. Transepithelial electrical resistance (TEER) across the monolayer was measured using Millicell Epithelial Volt-Ohm measuring system (Millipore, USA). The Plate was returned to the incubator once the measurement was done. The TEER value was calculated according to the following equation: TEER measurement (ohms)×Area of membrane (cm^2)=TEER value (ohm·cm^2)
TEER value should be greater than 230 ohm·cm^2, which indicates the well-qualified Caco-2 monolayer.
Preparation of Solutions: 2 mM stock solutions in DMSO of control compounds were prepared and diluted with HBSS (10 mM HEPES, pH 7.4) to get 10 μM working solution. 0.2 mM stock solutions of test compounds in DMSO were prepared and diluted with HBSS (10 mM HEPES, pH 7.4 with 0.5% BSA) to get 1 μM working solution. Metoprolol, erythromycin and cimetidine were used as control compounds.
Performing the Drug Transport Assay: The Caco-2 plate was removed from the incubator. The monolayer was washed twice with pre-warmed HBSS (10 mM HEPES, pH 7.4). The plate was incubated at 37° C. for 30 minutes. To determine the rate of drug transport in the apical to basolateral direction, 125 μL of the working solution was added to the Transwell insert (apical compartment). A 50 μL sample was transferred immediately from the apical compartment to 200 μL of acetonitrile containing IS (100 nM alprazolam, 200 nM Caffeine and 100 nM tolbutamide) in a new 96-well plate as the initial donor sample (A-B) and it was vortexed at 1000 rpm for 10 minutes. The wells in the receiver plate (basolateral compartment) were filled with 235 μL of transport buffer. To determine the rate of drug transport in the basolateral to apical direction, 285 μL of the working solution were added to the receiver plate wells (basolateral compartment). […]
Data analysis: All calculations were carried out using Microsoft Excel. Peak areas were determined from extracted ion chromatograms. […]

Where [3] appears, read: PBS pH 1.6, 25° C., read-out: Aq. Solubility at pH = 1.6.
The mark [4] stands for this setting: PBS pH 7.4, 25° C., read-out: Aq. Solubility at pH = 7.4.

Converted amounts (≈) assume the structure as drawn. Where two headings read alike, the source gives them in different places.

With `Cn1nccc1C(=O)Nc1ccc2nc(-c3ccccc3C(F)(F)F)[nH]c2c1` [A, 1-methyl-N-(2-(2-(trifluoromethyl)phenyl)-1H-benzo[d]imidazol-6-yl)-1H-pyrazole-5-carboxamide], the solubility (usually the dissolved amount per volume that the medium holds) at 2 h in data set [1] (setting [3]) was > 10 µM. Besides, the solubility at 2 h in data set [1] (setting [4]) was > 10 µM. In data set [2], the Papp A→B at 2 h, 1 μM is > 10 ×10⁻⁶ cm/s and the Papp B→A at 2 h, 1 μM was > 10 ×10⁻⁶ cm/s.
With `Cn1ncnc1C(=O)Nc1ccc2nc(-c3ccccc3C(F)(F)F)[nH]c2c1` [Compound H, 1-methyl-N-(2-(2-(trifluoromethyl)phenyl)-1H-benzo[d]imidazol-6-yl)-1H-1,2,4-triazole-5-carboxamide], the solubility at 2 h in data set [1] (setting [3]) was > 10 µM. In data set [1] (setting [4]), the solubility at 2 h lay in the range of 1 to 10 µM (≈ 0.386 to 3.86 µg/mL). For the same molecule, in data set [2], the Papp A→B at 2 h, 1 μM is > 10 ×10⁻⁶ cm/s and the Papp B→A at 2 h, 1 μM was > 10 ×10⁻⁶ cm/s.
